The record followed here is article PMC6318325, “The conformational changes coupling ATP hydrolysis and translocation in a bacterial DnaB helicase” (Nature Communications, 2019).

Data set [1] concerns the target T1, HpDnaB (DnaB) (Helicobacter pylori, UniProt O25916).
T1 construct: full length (488 residues), no tag stated (heparin and anion exchange purification); pACYC-duet1, E. coli BL21 Star (DE3); 13C-15N labelled for NMR; hexameric assembly, dodecamer named in anisotropy assay; nucleotide site at interface of two monomers
T1 sequence (O25916 1-488): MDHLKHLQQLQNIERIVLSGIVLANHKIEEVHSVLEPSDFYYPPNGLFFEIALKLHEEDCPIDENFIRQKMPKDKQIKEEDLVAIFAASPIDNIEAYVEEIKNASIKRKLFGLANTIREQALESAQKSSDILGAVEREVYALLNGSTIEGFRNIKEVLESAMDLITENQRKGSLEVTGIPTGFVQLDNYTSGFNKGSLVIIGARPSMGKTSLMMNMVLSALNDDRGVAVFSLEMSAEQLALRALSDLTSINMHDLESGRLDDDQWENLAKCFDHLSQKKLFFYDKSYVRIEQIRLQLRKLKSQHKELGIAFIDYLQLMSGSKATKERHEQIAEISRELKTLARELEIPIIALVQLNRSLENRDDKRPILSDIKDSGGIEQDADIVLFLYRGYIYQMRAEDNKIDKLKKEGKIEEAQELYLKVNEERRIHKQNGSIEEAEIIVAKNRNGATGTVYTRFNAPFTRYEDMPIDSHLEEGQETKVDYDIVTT
The experiment in a line: solid-state […] CP and […] MAS NMR of sedimented complex. Conditions: no DNA, NMR at 278 K, nucleotide-binding domain.

The target of data set [2] is T1, HpDnaB (DnaB). The data set is described as follows: […] solid-state NMR, ATP turned over to ADP during sample preparation. The data set is classed as biochemical. The following applies: 5 mM MgCl2, 5 mM ATP, pH 7.5, 130 mM NaCl, 4 °C, no DNA.
Data set [3] has as its target T2, HpDnaB replicative helicase (Helicobacter pylori, UniProt O25916 1-488).
T2 sequence: T1 sequence (O25916 1-488)
The experiment in a line: fluorescence anisotropy; 0.5 mM ATP, 5 mM MgCl2; Hill fit h 0.6509; Anisotropy: 20 mM Hepes pH 7.5, 5 mM MgCl2, 50 mM potassium acetate, 5% glycerol, 0.2 mg/ml BSA, 0.5 mM nucleotide, 1 nM DNA, 0-8 uM DnaB (dodecamer), temperature not stated; NMR: protein buffer 2.5 mM sodium phosphate pH 7.5, 130 mM NaCl, 278 K. Conditions: protein: recombinant; chain copies: 12; label: 5'-FAM; single strand. On the technique in general: Fluorescence polarisation rises when a labelled molecule tumbles more slowly, as on binding a larger partner.

For data set [4], the target named is T2, HpDnaB replicative helicase. The experiment in a line: fluorescence anisotropy; 0.5 mM AMP-PCP, 5 mM MgCl2; Hill fit; Supplementary Table 4 fit instead prints 47.43 +/- 2.648, h 0.7349 (column order inferred); Anisotropy: 20 mM Hepes pH 7.5, 5 mM MgCl2, 50 mM potassium acetate, 5% glycerol, 0.2 mg/ml BSA, 0.5 mM nucleotide, 1 nM DNA, 0-8 uM DnaB (dodecamer), temperature not stated; NMR: protein buffer 2.5 mM sodium phosphate pH 7.5, 130 mM NaCl, 278 K. The following applies: protein: recombinant; chain copies: 12; label: 5'-FAM; single strand.

For data set [5] the target is unchanged. The experiment in a line: fluorescence anisotropy; 0.5 mM ADP:AlF4-, 5 mM MgCl2; Hill fit h 1.160; Anisotropy: 20 mM Hepes pH 7.5, 5 mM MgCl2, 50 mM potassium acetate, 5% glycerol, 0.2 mg/ml BSA, 0.5 mM nucleotide, 1 nM DNA, 0-8 uM DnaB (dodecamer), temperature not stated; NMR: protein buffer 2.5 mM sodium phosphate pH 7.5, 130 mM NaCl, 278 K. The following applies: protein: recombinant; chain copies: 12; label: 5'-FAM; single strand.

Consider `Nc1ncnc2c1ncn2[C@@H]1O[C@H](COP(=O)(O)OP(=O)(O)CP(=O)(O)O)[C@@H](O)[C@H]1O` [AMP-PCP], for which the “solid-state 31P CP and 13C MAS NMR of sedimented complex” value at HpDnaB (DnaB) [1] (5 mM MgCl2, pH 7.5, 130 mM NaCl, 15 mM nucleotide) is “The nucleotides are thus indeed bound to the protein”. As to `Nc1ncnc2c1ncn2[C@@H]1O[C@H](COP(=O)(O)OP(=O)(O)O)[C@@H](O)[C@H]1O` [ADP], the “solid-state 31P CP and 13C MAS NMR of sedimented complex” value on HpDnaB (DnaB) [1] (5 mM MgCl2, 5 mM ADP, pH 7.5, 130 mM NaCl) is “The nucleotides are thus indeed bound to the protein”. With `Nc1ncnc2c1ncn2[C@@H]1O[C@H](COP(=O)(O)OP(=O)(O)OP(=O)(O)O)[C@@H](O)[C@H]1O` [ATP], the “31P solid-state NMR, ATP turned over to ADP during sample preparation” value at HpDnaB (DnaB) [2] was “Addition of ATP to the apo form yields the ADP spectrum, implying that ATP is hydrolyzed”. Turning to TTTTTTTTTTTTTTTTTTTT (ssDNA) [5'-FAM-(dT)20], the values for the Kd in data set [3], in data set [4] and in data set [5] were 14 ± 3 nM, 58 ± 14 nM and 0.83 ± 0.03 nM, respectively.

Broadly, the Kd is the concentration at which binding is half-saturated.
